In one experiment the test system is male C57BL/6J mice. Briefly: Test Example 2: antifeedant activity of NMU-23 and NMU-8 in mice. Format: in vivo. The settings on record: peripheral administration. The protocol:
7 weeks old male C57BL/6J mice (mean bodyweight: 25 g) delivered from the Japan Charles River Company were raised for 5 to 10 days after delivery under a feeding environment regulated for temperature and humidity with lighting time (25° C., 12 hours of lighted period and 12 hours of dark period, light was lit at 8:00). Four animals were placed in one cage. After handling the mice for 5 to 8 days, the animals were housed singly in each cage where a floor mesh was spread and acclimated by intraperitoneal injection for 3 days prior to the administration of a peptide. The animals acclimated were fasted for 16 hours from 18:00 prior to the administration of the peptide. However, the animals had free access to drinking water. […] After the injection of the peptide solution, MF feed which had been weighed (Oriental Yeast Industry) was given freely to the mice. Further, the residual amount of the feed was measured after 3, 6 and 24 hours. The food intakes at 3, 6 and 24 hours were calculated by subtracting the residual amount of the feed after 3, 6 and 24 hours from the amount of the feed that was originally given.
[In FIG. 2, * and ** tested by T-tests indicated to be lower at the levels of significance of 0.05 and 0.01 (P<0.05 and P<0.01]

The next experiment addresses T1, Human FM3 (Homo sapiens, UniProt Q9HB89).
T1 construct: expressed in transfected cells; host or cells: CHO (dhfr-) cells; membrane fraction
T1 sequence (Q9HB89 1-426 R203Q): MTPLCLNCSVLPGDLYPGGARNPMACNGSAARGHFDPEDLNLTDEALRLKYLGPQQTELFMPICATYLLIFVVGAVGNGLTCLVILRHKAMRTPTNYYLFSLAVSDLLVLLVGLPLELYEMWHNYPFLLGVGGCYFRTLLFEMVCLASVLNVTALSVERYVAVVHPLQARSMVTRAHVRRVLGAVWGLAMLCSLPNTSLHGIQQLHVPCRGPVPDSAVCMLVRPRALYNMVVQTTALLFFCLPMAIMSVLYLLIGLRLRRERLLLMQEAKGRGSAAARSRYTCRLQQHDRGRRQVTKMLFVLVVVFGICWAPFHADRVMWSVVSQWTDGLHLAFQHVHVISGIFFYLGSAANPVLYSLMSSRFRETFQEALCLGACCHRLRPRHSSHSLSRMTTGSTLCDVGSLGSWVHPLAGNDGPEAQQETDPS
Nature of the experiment: Receptor binding study: 125I-NMU 8 labeled ligand binding inhibition to the FM3 membrane fraction. The settings on record: FM3/CHO membrane fraction, 25° C. for 60 min, read-out: FM3 RBA IC50. On the procedure: Human FM3 represented CHO cells (dhfr-) and human TRI represented CHO cells (dhfr-) were cultured under 5% carbon dioxide conditions at 37° C. using a 10% dialyzed FBS-containing MEMα (Invitrogen) culture. The adhered cells were peeled with 10 ml of 0.1 mM EDTA containing DPB-S (Invitrogen) and cells were recovered by centrifugal separation at 4° C. at 1000 rpm for 10 min. 15 ml of homogenizer buffer (10 mM NaHCO3 (pH 7.4), 5 mM EDTA, Protein Inhibitors=0.5 mM PMSF, 10 μg/ml Pepstatin A, 20 μg/ml Leupeptin, 4 μg/ml E-64) were added to the cell pellets obtained. […]
Next, the reactivity between the radiation labeled ligand ^125I-NMU 8 and each receptor represented cell membrane fraction was analyzed by scatchard analysis using a reactive buffer (50 mM HEPES (pH 6.8), 1 mM EDTA, 0.1% BSA, Protein Inhibitors). […]
Namely, dilution strings of NMU derivatives and PEG conjugates were provided and diluted membrane fraction solutions (200 μl) were added. […] According to the aforementioned operations, the amount of binding of the labeled ligand remaining in the filter was measured and the IC50 values were calculated using graph pad PRISM (FIG. 4A (FM3 receptor binding), FIG. 4B (TGR1 receptor binding), FIG. 4C (FM3 receptor binding), FIG. 4D (TGR1 receptor binding) Table 9).

Consider 1 molecule from patent US20100286035A1, “NEUROMEDIN U DERIVATIVE” (Takeda Pharmaceutical Company Limited, priority 2007, published 2010).

By IC50 is commonly meant the concentration needed to halve the response being measured.

Consider `CC(C)C[C@H](NC(=O)[C@H](Cc1ccccc1)NC(=O)[C@@H](N)Cc1ccc(O)cc1)C(=O)N[C@@H](Cc1ccccc1)C(=O)N[C@@H](CCCNC(=N)N)C(=O)N1CCC[C@H]1C(=O)N[C@@H](CCCNC(=N)N)C(=O)N[C@@H](CC(N)=O)C(N)=O` [NMU-8, Try-Phe-Leu-Phe-Arg-Pro-Arg-Asn-NH2], for which, in the experiment with male C57BL/6J mice, the “antifeedant activity via peripheral administration” value was “did not express an antifeedant activity”. The IC50 on Human FM3 is 0.19 nM.
